# Test results: ChEMBL document CHEMBL1201862, “PubChem BioAssay data set” (2004)
#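 The compound was tested at five concentrations on cells cultured in 96-well plates, with a 48-hour exposure period. Here, GI50 denotes the concentration required for 50% inhibition of growth.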 Calls of active or inactive are those of the source. Rule as the data show it: active = GI50 up to about 1.1 µM and inactive = higher.
# Assays:
# Experiment in all cases: NCI tumour cell line growth inhibition, 48 h
# A498 = system: A498
# ACHN = system: ACHN
# COLO 205 = system: COLO 205
# HCC 2998 = system: HCC 2998
# HCT-15 = system: HCT-15
# HT-29 = system: HT-29
# KM12 = system: KM12
# LOX IMVI = system: LOX IMVI
# NCI-H226 = system: NCI-H226
# NCI-H460 = system: NCI-H460
# NCI-H522 = system: NCI-H522
# OVCAR-5 = system: OVCAR-5
# OVCAR-8 = system: OVCAR-8
# RXF 393 = system: RXF 393
# SK-MEL-2 = system: SK-MEL-2
# SK-MEL-5 = system: SK-MEL-5
# UACC-257 = system: UACC-257
# UACC-62 = system: UACC-62
# CAKI-1 = system: CAKI-1
SMILES,GI50 (A498),GI50 (ACHN),GI50 (COLO 205),GI50 (HCC 2998),GI50 (HCT-15) [µM],GI50 (HT-29),GI50 (KM12),GI50 (LOX IMVI),GI50 (NCI-H226),GI50 (NCI-H460),GI50 (NCI-H522),GI50 (OVCAR-5),GI50 (OVCAR-8),GI50 (RXF 393),GI50 (SK-MEL-2),GI50 (SK-MEL-5),GI50 (UACC-257),GI50 (UACC-62),GI50 (CAKI-1)
COc1ccc2nc(-c3ccc(O)cc3)cc(O)c2c1,0.269 µM (active),3.82 µM (inactive),1.28 µM (inactive),0.9 µM (active),1.36,2.26 µM (inactive),1.03 µM (active),1.58 µM (inactive),0.959 µM (active),1.95 µM (inactive),0.579 µM (active),> 25.9 µM (inactive),2.28 µM (inactive),0.137 µM (active),0.679 µM (active),0.714 µM (active),1.87 µM (inactive),0.697 µM (active),–
COc1cc(OC)c2ssc3c(OC)cc(OC)c4ssc1c2-c43,> 100 µM (inactive),> 100 µM (inactive),> 100 µM (inactive),> 100 µM (inactive),> 100,> 100 µM (inactive),> 100 µM (inactive),> 100 µM (inactive),> 100 µM (inactive),> 100 µM (inactive),> 100 µM (inactive),> 100 µM (inactive),> 100 µM (inactive),> 100 µM (inactive),> 100 µM (inactive),> 100 µM (inactive),> 100 µM (inactive),> 100 µM (inactive),> 100 µM (inactive)
CS/C(=N\c1ccc([N+](=O)[O-])cc1C#N)NC(=O)c1ccccc1,> 100 µM (inactive),> 100 µM (inactive),> 100 µM (inactive),> 100 µM (inactive),> 100,> 100 µM (inactive),> 100 µM (inactive),95.3 µM (inactive),33.9 µM (inactive),> 100 µM (inactive),–,> 100 µM (inactive),> 100 µM (inactive),40.4 µM (inactive),–,> 100 µM (inactive),> 100 µM (inactive),> 100 µM (inactive),94.2 µM (inactive)
O=C1OC(c2ccccc2)=N/C1=C/NC(Cc1ccc(O)cc1)C(=O)O (stereo not given),> 100 µM (inactive),> 100 µM (inactive),> 100 µM (inactive),> 100 µM (inactive),> 100,> 100 µM (inactive),> 100 µM (inactive),> 100 µM (inactive),> 100 µM (inactive),> 100 µM (inactive),> 100 µM (inactive),> 100 µM (inactive),> 100 µM (inactive),> 100 µM (inactive),> 100 µM (inactive),> 100 µM (inactive),73.5 µM (inactive),–,> 100 µM (inactive)
C/C(CCn1[nH]c(=O)ccc1=O)=N\OCCCc1ccccc1,> 100 µM (inactive),> 100 µM (inactive),–,> 100 µM (inactive),> 100,> 100 µM (inactive),> 100 µM (inactive),> 100 µM (inactive),> 100 µM (inactive),> 100 µM (inactive),–,> 100 µM (inactive),> 100 µM (inactive),> 100 µM (inactive),> 100 µM (inactive),> 100 µM (inactive),> 100 µM (inactive),> 100 µM (inactive),> 100 µM (inactive)
O=C(Nc1ccc(Cl)cc1Cl)C1C(=O)C(=O)N(c2ccc(Cl)cc2Cl)C1=O (stereo not given),> 100 µM (inactive),> 100 µM (inactive),–,> 100 µM (inactive),> 100,> 100 µM (inactive),> 100 µM (inactive),> 100 µM (inactive),34.1 µM (inactive),> 100 µM (inactive),> 100 µM (inactive),> 100 µM (inactive),> 100 µM (inactive),37.8 µM (inactive),–,> 100 µM (inactive),> 100 µM (inactive),> 100 µM (inactive),> 100 µM (inactive)
CCOC(=O)C1=C(C)C2C3C(=O)OC(=O)C3C1(C)C1C(=O)OC(=O)C21 (stereo not given),> 100 µM (inactive),> 100 µM (inactive),> 100 µM (inactive),> 100 µM (inactive),> 100,> 100 µM (inactive),> 100 µM (inactive),> 100 µM (inactive),> 100 µM (inactive),> 100 µM (inactive),–,–,> 100 µM (inactive),> 100 µM (inactive),> 100 µM (inactive),> 100 µM (inactive),> 100 µM (inactive),> 100 µM (inactive),–
Fc1ccc(F)c(C2SCc3nc4ccccc4n32)c1 (stereo not given),43.8 µM (inactive),98.4 µM (inactive),> 100 µM (inactive),> 100 µM (inactive),71.1,86.3 µM (inactive),72.6 µM (inactive),65.6 µM (inactive),> 100 µM (inactive),83 µM (inactive),36.1 µM (inactive),> 100 µM (inactive),> 100 µM (inactive),67.6 µM (inactive),–,20.3 µM (inactive),41.4 µM (inactive),91.6 µM (inactive),95.5 µM (inactive)
CCOC(=O)/C=C1\Nc2ccccc2-n2nnnc21,> 100 µM (inactive),> 100 µM (inactive),> 100 µM (inactive),> 100 µM (inactive),> 100,95.5 µM (inactive),> 100 µM (inactive),> 100 µM (inactive),> 100 µM (inactive),> 100 µM (inactive),–,> 100 µM (inactive),> 100 µM (inactive),> 100 µM (inactive),> 100 µM (inactive),> 100 µM (inactive),> 100 µM (inactive),> 100 µM (inactive),> 100 µM (inactive)
CSc1ccc(/C=C2\CN(C)C/C(=C\c3ccc(SC)cc3)C2=O)cc1,46.8 µM (inactive),40.6 µM (inactive),21.2 µM (inactive),79.4 µM (inactive),32,15.2 µM (inactive),8.75 µM (inactive),6.47 µM (inactive),> 100 µM (inactive),29.2 µM (inactive),–,> 100 µM (inactive),13.5 µM (inactive),22 µM (inactive),39.4 µM (inactive),48.8 µM (inactive),31.7 µM (inactive),55.8 µM (inactive),> 100 µM (inactive)
COC(=O)C1=CC(O)CCC1c1ccc(OC)cc1 (stereo not given),> 100 µM (inactive),> 100 µM (inactive),> 100 µM (inactive),> 100 µM (inactive),> 100,> 100 µM (inactive),> 100 µM (inactive),> 100 µM (inactive),> 100 µM (inactive),> 100 µM (inactive),> 100 µM (inactive),> 100 µM (inactive),> 100 µM (inactive),> 100 µM (inactive),> 100 µM (inactive),> 100 µM (inactive),> 100 µM (inactive),> 100 µM (inactive),> 100 µM (inactive)
C1=C(c2ccccc2)C(OC2Oc3ccccc3C=C2c2ccccc2)Oc2ccccc21 (stereo not given),> 100 µM (inactive),26.1 µM (inactive),> 100 µM (inactive),> 100 µM (inactive),> 100,> 100 µM (inactive),> 100 µM (inactive),> 100 µM (inactive),> 100 µM (inactive),> 100 µM (inactive),> 100 µM (inactive),> 100 µM (inactive),> 100 µM (inactive),> 100 µM (inactive),> 100 µM (inactive),> 100 µM (inactive),> 100 µM (inactive),> 100 µM (inactive),> 100 µM (inactive)
Nc1cn(C2OC(CC(c3ccccc3)(c3ccccc3)c3ccccc3)C(O)C2O)c(=O)[nH]c1=O (stereo not given),39.6 µM (inactive),> 100 µM (inactive),16.6 µM (inactive),27 µM (inactive),17.8,23.2 µM (inactive),31.3 µM (inactive),19.1 µM (inactive),73.8 µM (inactive),18.3 µM (inactive),19.2 µM (inactive),21.2 µM (inactive),24.9 µM (inactive),6.64 µM (inactive),28 µM (inactive),20.5 µM (inactive),22.9 µM (inactive),14.2 µM (inactive),19.5 µM (inactive)
Fc1ccc(/N=C2C=C/C(=N\c3ccc(F)cc3)c3ccccc3\2)cc1,> 100 µM (inactive),> 100 µM (inactive),> 100 µM (inactive),> 100 µM (inactive),> 100,> 100 µM (inactive),–,> 100 µM (inactive),77.4 µM (inactive),93.1 µM (inactive),> 100 µM (inactive),> 100 µM (inactive),> 100 µM (inactive),92.3 µM (inactive),> 100 µM (inactive),> 100 µM (inactive),> 100 µM (inactive),9.89 µM (inactive),–
O=C(CC1(O)C(=O)Nc2ccc([N+](=O)[O-])cc21)c1ccc2ccccc2c1 (stereo not given),> 100 µM (inactive),> 100 µM (inactive),> 100 µM (inactive),> 100 µM (inactive),> 100,> 100 µM (inactive),> 100 µM (inactive),–,> 100 µM (inactive),> 100 µM (inactive),65.6 µM (inactive),> 100 µM (inactive),> 100 µM (inactive),> 100 µM (inactive),> 100 µM (inactive),–,> 100 µM (inactive),> 100 µM (inactive),–
O=S(=O)(O)c1ccc([Se][Se]c2ccc(S(=O)(=O)O)cc2)cc1,> 100 µM (inactive),> 100 µM (inactive),> 100 µM (inactive),> 100 µM (inactive),> 100,> 100 µM (inactive),> 100 µM (inactive),> 100 µM (inactive),> 100 µM (inactive),> 100 µM (inactive),60.5 µM (inactive),> 100 µM (inactive),> 100 µM (inactive),> 100 µM (inactive),> 100 µM (inactive),> 100 µM (inactive),> 100 µM (inactive),> 100 µM (inactive),> 100 µM (inactive)
